PubChem BioAssay AID624167 (Sanford-Burnham Center for Chemical Genomics, 2012)
Calls of active or inactive are those of the source.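 How the source made its calls: active means mean IC50 for reducing PEG3 promoter reporter signal at or below a set limit, with IC50 above the limit in both counter screens; inactive means the rest, including counter screen hits.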

Tests used:
Test in all cases: inhibition of PEG-3 promoter-driven reporter – cell-based, HeLa, luciferase, CREF/GAPDH counter-screen panel, dose response (AID 624167)
PEG-3 [1] = molecular target: PEG-3 (UniProt Q6IN02); settings: HeLa PEG-Prom luciferase reporter, overnight, CREF/GAPDH counter-screens, mean of runs
PEG-3 [2] = settings: HeLa PEG-Prom luciferase reporter, overnight, CREF/GAPDH counter-screens
Rat fibroblasts (CREF) = settings: CREF/GAPDH counter-screens
[3] = run 1, dose range 1, individual replicate IC50 per panel
[4] = run 2, dose range 1, individual replicate IC50 per panel

PEG-3 (UniProt Q6IN02), sequence (Q6IN02 whole entry, looked up): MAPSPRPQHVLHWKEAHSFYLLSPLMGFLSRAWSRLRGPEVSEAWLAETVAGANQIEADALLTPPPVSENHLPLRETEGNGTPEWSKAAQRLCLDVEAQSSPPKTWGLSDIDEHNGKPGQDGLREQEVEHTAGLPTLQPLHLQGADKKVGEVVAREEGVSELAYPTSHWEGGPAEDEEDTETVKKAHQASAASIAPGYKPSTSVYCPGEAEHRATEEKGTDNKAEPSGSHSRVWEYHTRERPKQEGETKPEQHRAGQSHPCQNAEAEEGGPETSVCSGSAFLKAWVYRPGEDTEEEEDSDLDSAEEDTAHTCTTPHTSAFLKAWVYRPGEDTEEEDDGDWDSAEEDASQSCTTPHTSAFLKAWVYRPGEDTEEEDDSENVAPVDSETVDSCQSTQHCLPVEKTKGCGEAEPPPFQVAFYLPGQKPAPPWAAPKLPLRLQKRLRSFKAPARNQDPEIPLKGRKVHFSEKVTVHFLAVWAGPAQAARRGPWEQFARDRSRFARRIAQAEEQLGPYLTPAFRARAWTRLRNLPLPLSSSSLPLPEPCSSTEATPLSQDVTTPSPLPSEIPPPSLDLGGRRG

| Structure (SMILES) | IC50 (PEG-3 [1]) | IC50 (PEG-3 [2]; [3]) [µM] | IC50 (PEG-3 [2]; [4]) [µM] | IC50 (Rat fibroblasts (CREF); mean of runs) [µM] | IC50 (Rat fibroblasts (CREF); [3]) [µM] | IC50 (Rat fibroblasts (CREF); [4]) [µM] |
| --- | --- | --- | --- | --- | --- | --- |
| CCOC(=O)c1c(-n2c(C)cc(C=C3C(=O)NC(=S)NC3=O)c2C)sc2c1CCCC2 | 5.69 µM | 5.9 | 5.47 | 11.3 | 20.3 | 2.35 |
| O=C(Nc1nc2cc3c(cc2s1)OCCO3)c1ccco1 | 1.98 µM | 1.75 | 2.22 | 1.48 | 0.766 | 2.2 |
| COc1cc(SC)ccc1C(=O)Nc1nc(C)cs1 | 2.11 µM | 1.69 | 2.52 | 0.516 | 0.542 | 0.49 |
| S=C(NN=C(c1ccccc1)c1ccccn1)N(Cc1ccccn1)Cc1ccccn1 | 2.19 µM | 2.58 | 1.8 | 6.99 | 4.59 | 9.4 |
| CC(=O)Nc1ccc(NC(=O)c2nc(S(=O)(=O)Cc3cccc(C)c3)ncc2Cl)cc1 | 7.65 µM | 9.47 | 5.84 | 6.67 | 4.5 | 8.85 |
| COc1cccc2nc3c(C(=O)NCCN(C)C)cccc3cc12 | 9.14 µM | 11.2 | 7.03 | 8.72 | 12 | 5.44 |
| COc1ccc(C(=O)/C=C/Nc2ccccn2)cc1 | 2.6 µM | 2.02 | 3.18 | 3.61 | 3.45 | 3.77 |
| CC(C)Cc1ccc(C(C)C(N)=NCCc2ccccc2)cc1 (centres undefined) | 9.7 µM | 12.2 | 7.19 | 13.3 | 15 | 11.6 |
| CCN(CCO)c1ccc(N=Nc2cc(C)[nH]n2)cc1 | 4.61 µM | 3 | 6.22 | 2.24 | 1.52 | 2.97 |
| O=C(Nc1nc2ccccc2[nH]1)c1ccccc1F | 1.26 µM | 1.13 | 1.4 | 1.47 | 1.26 | 1.68 |
| O=C(NC(=O)c1ccccc1)Nc1ccccn1 | 1.57 µM | 1.25 | 1.88 | 0.751 | 0.676 | 0.825 |
| C(=N\Nc1nc2ccccc2[nH]1)/c1ccccn1 | 4.06 µM | 4.26 | 3.87 | 1.48 | 1.14 | 1.83 |
| Cc1ccc(-n2[nH]c(=O)c(-c3ccccn3)c2C)cc1 | 3 µM | 2.62 | 3.38 | 11.2 | 7.32 | 15 |
| Cc1cc(NC(c2cccnc2)c2ccc3cccnc3c2O)no1 (centres undefined) | 6.13 µM | 7.22 | 5.04 | 5.72 | 5.65 | 5.79 |
| OCCNc1c2ccccc2nc2ccccc12 | 8.99 µM | 10.2 | 7.76 | 0.77 | > 80 | 0.77 |
| O=[N+]([O-])c1ccc(-c2ccc(/C=N/Nc3nc(NCc4ccccc4)nc(N4CCOCC4)n3)o2)cc1 | 5.66 µM | 6.13 | 5.18 | 8.54 | 9.4 | 7.68 |
| CN(C)c1ccc(/C=C/c2ccc3c4ccccc4ccc3[n+]2-c2ccccc2)cc1 | 10 µM | 10.5 | 9.52 | 17.8 | 16.9 | 18.7 |
| N=c1n(CCN2CCCCC2)c2ccccc2n1CC(O)c1ccc(Cl)c(Cl)c1 (centres undefined) | 9.46 µM | 10.1 | 8.8 | 14.2 | 13.6 | 14.8 |
| COc1cc(NS(C)(=O)=O)ccc1Nc1c2ccccc2nc2ccccc12 | 10.7 µM | 11 | 10.4 | 4.97 | 8.61 | 1.33 |
| O=C(CN1C(=O)c2ccccc2S1(=O)=O)c1ccc2c(c1)OCCCO2 | 0.59 µM | 0.77 | 0.411 | 1.28 | 1.07 | 1.48 |
| C=C1CC(COc2ccc3c(C)c(Cl)c(=O)oc3c2)(c2ccccc2)OC1=O (centres undefined) | 5.04 µM | 6.47 | 3.62 | 9.11 | 9.32 | 8.9 |
| Cc1cccc(CS(=O)(=O)c2ncc(Cl)c(C(=O)Nc3ccc(F)cc3)n2)c1 | 4.73 µM | 6.01 | 3.44 | 2.02 | > 80 | 2.02 |
| C(=NN1CCCCCC1)c1ccc2ccccc2n1 | inactive | 3.59 | > 100 | 2.58 | 2.12 | 3.04 |
| COc1ccc(C(=O)O/N=C(\N)c2ccccn2)cc1 | 2.02 µM | 3.11 | 0.926 | 1.62 | 1.32 | 1.93 |
